Experiments:
PI3Kalpha = PI3Kalpha (Homo sapiens (Human), UniProt P42336); test: HTRF PI3K biochemical assay, alpha isoform (selectivity versus delta); settings: ratio PI3K-alpha IC50 value/PI3K-delta IC50 value
Method: (§1) HTRF PI3K Biochemical Assay to Measure Intrinsic Potency of Compound Inhibitors
(§2) This loss of signal is nonlinear with respect to both increasing product and time. This non-linear detection will impact accuracy of IC50 calculations; therefore, there is a need for a correction factor to obtain more accurate IC50 values. This correction is derived from a PIP3 standard curve run in a separate assay plate. All data were calculated using the ratio of acceptor (APC) to donor (Europium) fluorescence in each well of the assay plate. […] An IC50 was then calculated fitting the % inhibition data to the equation: % inhibition=min+(Max−min)/1+([inhibitor]/IC50)^n) where min is the % inhibition with inhibitor, max is the signal in DMSO control, and n is the Hill slope.
(§3) The biological data was collected using the methodology described above.
The determination of relative selectivity for a given compound is defined as the relative ratio of the (PI3K-alphaIC50 value/PI3K-delta IC50 value).

PI3Kdelta = PI3Kdelta (Homo sapiens (Human), UniProt O00329); test: HTRF PI3K biochemical assay, delta isoform; settings: 0.3 nM enzyme, 100 uM ATP, 50 uM PIP2; form screened (neutral or TFA salt)
PI3Kdelta, sequence (O00329 whole entry, canonical isoform): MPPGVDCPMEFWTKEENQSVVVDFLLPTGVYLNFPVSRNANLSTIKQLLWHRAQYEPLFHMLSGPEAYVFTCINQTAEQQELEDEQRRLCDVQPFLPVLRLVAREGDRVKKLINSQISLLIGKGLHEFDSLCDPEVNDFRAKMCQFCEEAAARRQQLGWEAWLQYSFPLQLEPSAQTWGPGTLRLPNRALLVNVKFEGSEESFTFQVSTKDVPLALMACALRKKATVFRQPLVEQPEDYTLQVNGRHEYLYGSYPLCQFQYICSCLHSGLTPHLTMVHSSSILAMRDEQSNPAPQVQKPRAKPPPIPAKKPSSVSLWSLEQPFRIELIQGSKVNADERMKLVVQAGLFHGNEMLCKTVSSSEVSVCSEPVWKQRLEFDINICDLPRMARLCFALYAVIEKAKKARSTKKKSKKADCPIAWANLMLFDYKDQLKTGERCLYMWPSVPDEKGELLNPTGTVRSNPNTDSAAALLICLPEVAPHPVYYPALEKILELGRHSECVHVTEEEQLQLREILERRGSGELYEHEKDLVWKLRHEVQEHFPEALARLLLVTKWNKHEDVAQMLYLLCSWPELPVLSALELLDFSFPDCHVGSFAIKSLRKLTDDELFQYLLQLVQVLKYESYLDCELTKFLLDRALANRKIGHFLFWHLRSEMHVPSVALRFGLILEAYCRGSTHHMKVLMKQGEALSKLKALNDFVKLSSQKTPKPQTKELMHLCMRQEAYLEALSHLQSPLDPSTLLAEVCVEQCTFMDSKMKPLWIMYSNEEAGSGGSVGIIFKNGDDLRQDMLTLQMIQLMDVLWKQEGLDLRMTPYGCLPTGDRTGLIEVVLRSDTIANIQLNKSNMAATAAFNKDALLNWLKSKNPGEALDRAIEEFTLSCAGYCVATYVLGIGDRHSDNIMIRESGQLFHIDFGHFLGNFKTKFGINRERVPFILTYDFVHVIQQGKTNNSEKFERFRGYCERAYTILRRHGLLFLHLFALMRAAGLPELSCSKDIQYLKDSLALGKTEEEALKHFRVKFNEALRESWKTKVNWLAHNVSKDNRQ
PI3Kdelta, sequence (P27986 whole entry partner, canonical isoform): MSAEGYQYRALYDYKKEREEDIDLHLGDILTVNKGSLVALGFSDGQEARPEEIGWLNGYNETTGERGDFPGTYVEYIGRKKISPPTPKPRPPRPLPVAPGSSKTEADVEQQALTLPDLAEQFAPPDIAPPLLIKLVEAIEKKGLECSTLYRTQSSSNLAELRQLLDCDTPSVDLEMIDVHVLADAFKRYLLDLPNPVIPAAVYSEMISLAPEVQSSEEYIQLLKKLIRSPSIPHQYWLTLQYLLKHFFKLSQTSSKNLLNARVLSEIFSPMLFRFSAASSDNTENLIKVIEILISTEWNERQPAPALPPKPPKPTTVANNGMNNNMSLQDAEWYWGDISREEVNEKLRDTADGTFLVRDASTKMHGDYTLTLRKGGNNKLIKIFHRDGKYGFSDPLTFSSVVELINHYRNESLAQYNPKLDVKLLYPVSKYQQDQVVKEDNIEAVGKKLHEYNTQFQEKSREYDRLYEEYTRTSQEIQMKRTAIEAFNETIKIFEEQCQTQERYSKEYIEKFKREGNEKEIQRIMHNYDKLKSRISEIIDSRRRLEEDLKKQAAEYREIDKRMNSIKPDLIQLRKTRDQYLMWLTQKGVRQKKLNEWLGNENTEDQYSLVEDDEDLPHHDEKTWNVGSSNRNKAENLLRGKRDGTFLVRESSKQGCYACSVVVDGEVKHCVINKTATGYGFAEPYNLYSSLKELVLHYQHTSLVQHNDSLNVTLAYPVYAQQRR
Method: as §1, §2, §3

PI3Kalpha, sequence (P42336 whole entry, canonical isoform): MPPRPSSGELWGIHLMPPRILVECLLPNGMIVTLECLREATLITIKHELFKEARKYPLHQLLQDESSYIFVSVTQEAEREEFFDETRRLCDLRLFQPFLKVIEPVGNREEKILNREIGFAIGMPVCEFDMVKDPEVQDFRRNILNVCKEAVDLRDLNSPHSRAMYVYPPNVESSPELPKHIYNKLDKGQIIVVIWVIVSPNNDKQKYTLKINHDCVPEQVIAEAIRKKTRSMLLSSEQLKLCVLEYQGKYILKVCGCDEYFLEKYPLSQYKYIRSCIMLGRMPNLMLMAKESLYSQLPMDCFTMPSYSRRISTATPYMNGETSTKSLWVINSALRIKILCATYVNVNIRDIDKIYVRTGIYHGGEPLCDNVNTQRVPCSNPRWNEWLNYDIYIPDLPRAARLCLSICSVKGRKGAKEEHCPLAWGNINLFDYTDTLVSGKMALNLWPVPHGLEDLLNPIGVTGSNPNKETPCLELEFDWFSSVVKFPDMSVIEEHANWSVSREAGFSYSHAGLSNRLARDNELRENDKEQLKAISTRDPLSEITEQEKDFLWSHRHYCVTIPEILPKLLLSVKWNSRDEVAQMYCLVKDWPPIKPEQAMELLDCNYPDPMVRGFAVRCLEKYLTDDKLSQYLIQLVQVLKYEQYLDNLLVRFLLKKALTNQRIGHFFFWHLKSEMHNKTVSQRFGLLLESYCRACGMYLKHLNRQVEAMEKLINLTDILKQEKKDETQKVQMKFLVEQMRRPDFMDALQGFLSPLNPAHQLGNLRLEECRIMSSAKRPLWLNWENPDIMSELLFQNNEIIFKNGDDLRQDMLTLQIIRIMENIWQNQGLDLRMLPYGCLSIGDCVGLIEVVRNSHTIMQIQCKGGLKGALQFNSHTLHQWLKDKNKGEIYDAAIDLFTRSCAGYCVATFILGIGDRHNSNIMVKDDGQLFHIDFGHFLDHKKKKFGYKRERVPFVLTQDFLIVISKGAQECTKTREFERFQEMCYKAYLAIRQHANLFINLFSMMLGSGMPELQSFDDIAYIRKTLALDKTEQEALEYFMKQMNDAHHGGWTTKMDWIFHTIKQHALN
PI3Kalpha, sequence (P27986 whole entry partner, canonical isoform): as the sequence (P27986 whole entry partner, canonical isoform) above

| Compound | Relative Selectivity versus PI3Kalpha (PI3Kalpha) | IC50 (PI3Kdelta) |
| --- | --- | --- |
| CCn1c(-c2cnc(C)nc2)nc2c(-c3ccc4c(c3)C(C)(N3C[C@H]5C[C@@H]3CO5)C(=O)N4)ncnc21 (mixture of isomers) [Compound 2-26, 5-[9-ethyl-8-(2-methylpyrimidin-5-yl)-9H-purin-6-yl]-3(R and S)-methyl-3-[(1R,4R)-2-oxa-5-azabicyclo[2.2.1]hept-5-yl]-1,3-dihydro-2H-indol-2-one] | >10 | 58 nM |
| CCn1c(-c2cnc(C)nc2)nc2c(-c3ccc4[nH]c(=O)n(C(C)C5CC5)c4c3)ncnc21 (single isomer, unassigned) [Compound 5-7, (R or S)-1-(1-cyclopropylethyl)-6-[9-ethyl-8-(2-methylpyrimidin-5-yl)-9H-purin-6-yl]-1,3-dihydro-2H-benzimidazol-2-one] | >10 | 3 nM |
| CCn1c(-c2cnc(C)nc2)nc2c(-c3ccc4c(c3)C(C)(CC(C)C)OC(=O)N4)ncnc21 (single isomer, unassigned) [Compound 4-4, (R or S)-6-[9-ethyl-8-(2-methylpyrimidin-5-yl)-9H-purin-6-yl]-4-methyl-4-(2-methylpropyl)-1,4-dihydro-2H-3,1-benzoxazin-2-one] | >10 | 4 nM |
| CCn1c(-c2cnc(C)nc2)nc2c(-c3ccc4c(c3)C3(CCCN3S(C)(=O)=O)C(=O)N4C)ncnc21 (single isomer, unassigned) [Compound 3-23, (R or S)-5-(9-ethyl-8-(2-methylpyrimidin-5-yl)-9H-purin-6-yl)-1-methyl-1′-(methylsulfonyl)spiro[indoline-3,2′-pyrrolidin]-2-one] | >10 | 6 nM |
| CCn1c(-c2cnc(C)nc2)nc2c(-c3ccc4c(c3)C(C)(NCC3CC3)C(=O)N4)ncnc21 (single isomer, unassigned) [Compound 2-33, (R or S)-3-[(cyclopropylmethyl)amino]-5-[9-ethyl-8-(2-methylpyrimidin-5-yl)-9H-purin-6-yl]-3-methyl-1,3-dihydro-2H-indol-2-one] | >4 | 2750 nM |
| CCN1CCCC12C(=O)Nc1ccc(-c3ncnc4c3nc(-c3cnc(C)nc3)n4C)cc12 (single isomer, unassigned) [Compound 3-29, (R or S)-1′-ethyl-5-(9-methyl-8-(2-methylpyrimidin-5-yl)-9H-purin-6-yl)spiro[indoline-3,2′-pyrrolidin]-2-one] | >10 | 15 nM |
| CCn1c(-c2cnc(C)nc2)nc2c(-c3ccc4c(c3)C(C)(N[C@H]3C[C@H](OC)C3)C(=O)N4)ncnc21 (single isomer, unassigned) [Compound 2-83, 5-(9-ethyl-8-(2-methylpyrimidin-5-yl)-9H-purin-6-yl)-3-(((1R,3R)-3-methoxycyclobutyl)amino)-3(R or S)-methylindolin-2-one] | >10 | 21 nM |
| Cc1ncc(-c2nc3c(-c4cnc5c(c4)C(C)(CC(C)C)C(=O)N5)ncnc3n2C)cn1 (single isomer, unassigned) [Compound 1-26, (R or S)-3-isobutyl-3-methyl-5-(9-methyl-8-(2-methylpyrimidin-5-yl)-9H-purin-6-yl)-1,3-dihydro-2H-pyrrolo[2,3-b]pyridin-2-one] | >10 | 50 nM |
| CCn1c(-c2cnc(C)nc2)nc2c(-c3ccc4c(c3)C3(CCCN3S(=O)(=O)C(F)(F)F)C(=O)N4)ncnc21 (single isomer, unassigned) [Compound 3-22, (R or S)-5-(9-ethyl-8-(2-methylpyrimidin-5-yl)-9H-purin-6-yl)-1′-((trifluoromethyl)sulfonyl)spiro[indoline-3,2′-pyrrolidine]-2-one] | >10 | 4 nM |
| CCn1c(-c2cnc(C)nc2)nc2c(-c3ccc4c(c3)C(C)(CC(C)C)NS4(=O)=O)ncnc21 (single isomer, unassigned) [Compound 4-6, (R or S)-9-ethyl-6-[3-methyl-3-(2-methylpropyl)-1,1-dioxido-2,3-dihydro-1,2-benzisothiazol-5-yl]-8-(2-methylpyrimidin-5-yl)-9H-purine] | >10 | 55 nM |
| CCn1c(-c2cnc(C)nc2)nc2c(-c3ccc4c(c3)C(C)(OCC(C)(C)F)C(=O)N4)ncnc21 (single isomer, unassigned) [Compound 2-55, (R or S)-5-(9-ethyl-8-(2-methylpyrimidin-5-yl)-9H-purin-6-yl)-3-(2-fluoro-2-methylpropoxy)-3-methylindolin-2-one] | >10 | 200 nM |
| CCN1C(=O)C2(CCCN2C(=O)C2CC2)c2cc(-c3ncnc4c3nc(-c3cnc(C)nc3)n4CC)ccc21 (single isomer, unassigned) [Compound 3-9, (R or S)-1′-(cyclopropanecarbonyl)-1-ethyl-5-(9-ethyl-8-(2-methylpyrimidin-5-yl)-9H-purin-6-yl)spiro[indoline-3,2′-pyrrolidin]-2-one] | >10 | 5 nM |
| CCn1c(-c2cnc(C)nc2)nc2c(-c3ccc4c(c3)C(C)(CC(C)C)NC4=O)ncnc21 (single isomer, unassigned) [Compound 4-8, (R or S)-5-[9-ethyl-8-(2-methylpyrimidin-5-yl)-9H-purin-6-yl]-3-methyl-3-(2-methylpropyl)-2,3-dihydro-1H-isoindol-1-one] | >10 | 128 nM |
| CCn1c(-c2cnc(C)nc2)nc2c(-c3ccc4c(c3)C(C)(Nc3ccncc3)C(=O)N4)ncnc21 (racemic) [Compound 2-9, (R and S)-5-[9-ethyl-8-(2-methylpyrimidin-5-yl)-9H-purin-6-yl]-3-methyl-3-(pyridin-4-ylamino)-1,3-dihydro-2H-indol-2-one] | >10 | 144 nM |
| CCn1c(C(F)F)nc2c(-c3ccc4c(c3)C3(CCCN3C(=O)C3CC3)C(=O)N4)ncnc21 (single isomer, unassigned) [Compound 3-15, (R or S)-1′-(cyclopropanecarbonyl)-5-(8-(difluoromethyl)-9-ethyl-9H-purin-6-yl)spiro[indoline-3,2′-pyrrolidin]-2-one] | >10 | 5 nM |
| Cc1ncc(-c2nc3c(-c4ccc5c(c4)C4(CCCN4C(=O)C4CC4)C(=O)N5CCN4CCOCC4)ncnc3n2C)cn1 (single isomer, unassigned) [Compound 3-16, (R or S)-1′-(cyclopropanecarbonyl)-5-(9-methyl-8-(2-methylpyrimidin-5-yl)-9H-purin-6-yl)-1-(2-morpholinoethyl)spiro[indoline-3,2′-pyrrolidin]-2-one] | >10 | 2 nM |
| CCn1c(-c2cnc(C)nc2)nc2c(-c3ccc4c(c3)C(C)(NCC3CC3)C(=O)N4)ncnc21 (single isomer, unassigned) [Compound 2-34, (R or S)-3-[(cyclopropylmethyl)amino]-5-[9-ethyl-8-(2-methylpyrimidin-5-yl)-9H-purin-6-yl]-3-methyl-1,3-dihydro-2H-indol-2-one] | >10 | 29 nM |

— patent US10544147B2, “Purine inhibitors of human phosphatidylinositol 3-kinase delta” (MERCK SHARP & DOHME CORP., priority 2016, dated 2020)
